Test results reported in publication PMC10597491 (PLOS ONE, 2023).
pEC50: −log10 of the molar value. Bridge positions count the residues as written; N and C are the ends. Ends that are not written are not given here.

Experiments:
[1] = Plasma stability in vitro, human plasma; assay type: in vitro ADME; parameters: dose or concentration left out as unconfirmed; conditions: 37°C, incubated in duplicate, intact peptide by LC/MS/MS, read-out: t1/2 in human plasma (converted)
Source text: Affinity maturation of these initial families produced ligands with improved affinities; and combinations of these ligands (one each for IL-7Rα and γc) were joined into heterodimers in a variety of orientations (i.e., joined by N-termini, C-termini, or N-to-C termini), with several connection chemistries, for testing as IL-7R agonists in cell-based assays. The lead peptide agonist for detailed characterization, as described here, is a fusion of peptides MDK1248 and MDK1188, joined with a short intervening linker to form the single-chain peptide MDK1472. The peptides were analyzed for sequence similarity to IL-7, and none was found.
Supplementary file pone.0286834.s001.pptx: S1 Fig Plasma stability of MDK 1472 in vitro. […] MDK1472 or control peptide YGGFL incubated in duplicate in human or cynomolgus plasma at 37°C. At indicated time points, compounds were isolated from the plasma and the quantity of intact peptides measured by LC/MS/MS (Study performed by Quintara Discovery, Hayward, CA). (PPTX) Click here for additional data file.

[2] = target: T1, IL-7R (Homo sapiens, UniProt P16871+P31785); assay: STAT5 phosphorylation in TF1-7Rα cells; assay type: cell-based
T1 construct: constructed to express full-length human IL-7Rα in TF-1 cells; TF-1 cells, which naturally express γc, but not IL-7Rα; expressed in transfected cells
T1 sequence (P16871 21-459): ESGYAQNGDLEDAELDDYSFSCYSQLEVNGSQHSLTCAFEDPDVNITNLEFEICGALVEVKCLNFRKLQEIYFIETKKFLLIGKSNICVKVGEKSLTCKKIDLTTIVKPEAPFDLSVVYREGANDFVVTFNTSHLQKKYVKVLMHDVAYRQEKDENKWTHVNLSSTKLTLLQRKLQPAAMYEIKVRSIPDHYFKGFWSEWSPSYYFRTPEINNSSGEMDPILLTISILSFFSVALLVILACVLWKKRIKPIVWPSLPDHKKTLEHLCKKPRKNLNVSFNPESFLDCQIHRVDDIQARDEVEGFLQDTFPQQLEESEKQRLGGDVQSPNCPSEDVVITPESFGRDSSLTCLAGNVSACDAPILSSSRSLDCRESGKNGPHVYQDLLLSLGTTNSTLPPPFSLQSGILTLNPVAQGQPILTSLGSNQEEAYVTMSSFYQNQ
T1 sequence (P31785 23-369): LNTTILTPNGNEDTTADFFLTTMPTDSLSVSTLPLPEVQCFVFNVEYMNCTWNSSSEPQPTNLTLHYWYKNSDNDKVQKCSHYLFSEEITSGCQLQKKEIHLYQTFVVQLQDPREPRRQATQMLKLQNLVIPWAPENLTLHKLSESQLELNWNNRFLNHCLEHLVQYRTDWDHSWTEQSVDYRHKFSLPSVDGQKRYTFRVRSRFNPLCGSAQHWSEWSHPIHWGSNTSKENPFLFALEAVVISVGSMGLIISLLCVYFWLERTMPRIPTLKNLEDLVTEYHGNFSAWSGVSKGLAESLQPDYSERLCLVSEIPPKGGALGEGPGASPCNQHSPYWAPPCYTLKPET
Experimental: The synthetic peptide MDK1472 was designed to bind simultaneously to IL-7Rα and γc subunits and was tested for its ability to induce phosphorylation of STAT5, the primary IL-7R signaling pathway.
Reactions were stopped and cell lysates prepared for pSTAT5 analysis.
Cells were deprived of growth factors by overnight incubation at 5×10^5 cells/mL in starvation medium (RPMI 1640 + 4.5 g/L glucose + 0.2% FBS + 2 mM L-glutamine + 1 mM NaPyr + 10 mM HEPES + 0.5x penicillin-streptomycin with no cytokine supplement) in T75 flasks. For assays, cells were plated in 96-well V-bottom plates at 2×10^5 cells/well. Three-fold serial dilutions in starvation medium of the test compounds or cytokine were added to the cells and incubated for 30 min at 37°C. Following incubation, cell extracts were prepared by adding a mixture of 10x Cell Lysis Buffer (Cell Signaling Technology Cat# 9803) and 100x HALT Phosphatase and Protease Inhibitor Cocktail (Thermo Fisher Cat# 78442) directly to the wells. The plates were agitated at 25°C for 5 min to prepare cell extracts for immediate use or to be stored at -80°C until assay. Detection of pSTAT5 was performed using a PathScan® Phospho-Stat5 (pTyr694) Sandwich ELISA Kit (Cell Signaling Technology Cat# 7113). Detection of pSTAT6 was performed using a PathScan® Phospho-Stat6 (pTyr641) Sandwich ELISA Kit (Cell Signaling Technology Cat# 7275). Detection of pSTAT3 was performed using a PathScan® Phospho-Stat3 (pTyr705) Sandwich ELISA Kit (Cell Signaling Technology Cat# 7300). Cell lysates were added to pre-coated ELISA wells and incubated at 4°C overnight. Primary and secondary antibody incubations and wash steps were performed according to the protocols supplied by the manufacturer. Assays were developed using TMB substrate (Surmodics Cat# TMBW-1000-01) for 5–10 min at 25°C and the reaction was stopped using STOP solution (Surmodics Cat# LSTP-1000-01).

- half-life [1]: 60 h
- pEC50 ([2]; Fig 4A dose response, 30 min at 37°C, pSTAT5 ELISA): 7.74
- efficacy (Emax) of STAT5 phosphorylation relative to IL-7 ([2]; TF1-7Rα cells, Fig 3): full efficacy
Substance: Ac-GWGIPWCTLDPGSLQCAWLGKHGGGGSGGVVCQDWEGVELCWQGG (disulfide 7-16, 32-41) [MDK1472]
- dependence of agonist activity on IL-7Rα expression ([2]; TF-1 parental (γc+) versus TF1-7Rα cells): completely dependent on IL-7Rα expression
